Results on two compounds are retold here after US8034843B2, “Compositions comprising cannabinoids for treatment of nausea, vomiting, emesis, motion sickness or like conditions” (priority 2002, dated 2011).

In series [1] the target is CB2 (Peripheral receptors) (Homo sapiens, UniProt P34972). The following applies: cited from earlier work.
A short description of series [2]: Stability of purified CBDA in solution. The class given is physicochemical. The source says:
This undesirable decarboxylation of the purified material might be minimised by manipulation of CBDA at sub-ambient temperatures.

CB2 (Peripheral receptors), sequence (P34972 whole entry, species assumed): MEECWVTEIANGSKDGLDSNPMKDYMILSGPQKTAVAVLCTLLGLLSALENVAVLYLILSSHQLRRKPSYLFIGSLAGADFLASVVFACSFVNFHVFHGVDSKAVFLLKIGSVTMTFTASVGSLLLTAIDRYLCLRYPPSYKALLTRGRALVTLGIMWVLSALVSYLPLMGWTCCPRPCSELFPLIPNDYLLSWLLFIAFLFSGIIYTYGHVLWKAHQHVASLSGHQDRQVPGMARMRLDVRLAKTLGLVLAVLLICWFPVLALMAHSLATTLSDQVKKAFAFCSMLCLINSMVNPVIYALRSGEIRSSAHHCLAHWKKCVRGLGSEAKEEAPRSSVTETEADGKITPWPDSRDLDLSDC

On to `CCCCCc1cc(O)c2c(c1)OC(C)(C)[C@@H]1CCC(C)=C[C@@H]21` [THC, delta^9-tetrahydrocannabinol], for which the “binding to CB2 receptors” value in series [1] is “bound with high avidity”.

With `C=C(C)[C@@H]1CCC(C)=C[C@H]1c1c(O)cc(CCCCC)c(C(=O)O)c1O` [CBDA], the “decarboxylation in solution (CBDA→CBD+CO2)” value in series [2] was “slowly decarboxylates in solution”.
